Reference: patent publication EP2157088A1, “INDICYANINE DYES AND THE DERIVATIVES THEREOF FOR ANALYSING BIOLOGICAL MICROMOLECULES” (UCHREZHDENIE ROSSIISKOI AKADEMII NAUK INSTITUT …, priority 2007, dated 2008)

How the values were obtained:
[1] = Quantum efficiency of fluorescence, measured versus a reference dye; type: physicochemical
Description: For all indodicarbocyanine dyes (I) (A1) - (A30) and (B1) - (B7) of the invention, there are determined the quantum efficiency of fluorescence in methanol and in aqueous phosphate buffered saline (Table 1, Fig. 3). The measurements are performed versus dyes of formula (I) (R1= -CH3, R2= R6= -SO3^-; R3= -(CH2)5COOH, R4= -C2H5, R5= -H) whose quantum efficiency of fluorescence in PBS is 0.27 (Mader O., K. Reider, H.-J. Egelhaaaf, R, Fischer, R. Brock, Structure Properties of Pentamethine Indocyanine Dyes: Identification of New Dyes for Life Science Applications. Bioconjugate Chem, 2004, vol. 15, pp. 70-78). In methanol, dyes (A10, A22, A25, A29, A30) have the upper-range of quantum efficiency of fluorescence (Φ ∼ 0.3), but in PBS, dyes (A10, A22, A25, A29, A30) have the maximal Φ -value.

[2] = type: physicochemical
Excerpt: Subject to substituent at the heterocyclic moiety, dyes of formulae (A) and (B) proposed are distinguished by a spectral range of excitation and fluorescence, by the total electrical charge, and water solubility (Table 1).

[3] = Absorption and fluorescence maxima of the dyes; type: physicochemical
Excerpt: An insertion of methyl group at 5- and 7-positions of indolenyne cycle produces a bathochromic shift in the absorption and fluorescent spectra. As to the rest sulfur containing dyes, the spectral characteristics thereof appear to be in the same range (between about λmax 648 nm and λem 669 nm) (Fig. 1),

[4] = Relative efficiency of fluorescence / absolute sensitivity of label, normalized to dye A30 in PBS; type: physicochemical; details: for Sensitivity of record 635/ 670: excitation 635 nm, record 670 nm; for Sensitivity of record 655/ 690: excitation 655 nm, record 690 nm; for Sensitivity of record max/ max: excitation and record in absorption and fluorescence maxima, ε*Φ normalized to A30 in PBS
Excerpt: The data obtained were as follows: • on excitation and record in absorption and fluorescence maxima, the relative efficiency of fluorescence exceeds 0.80 for dyes (A10), (A22), (A23), (A25), and (A30) in methanol and for dyes (A22), (A25), and (A30) in PBS (Table 1, Fig. 4), whereas for dyes of formula (I) (R1 = -CH3, R2= R6= -SO3^-; R3= -(CH2)5COOH, R4= -C2H5; R5= -H) the values are 0.69 in methanol and 0.67 in PBS; • on excitation at wavelength 655 nm and record at 690 nm, the relative efficiency of fluorescence exceeds 0.25 for dyes (A25) and (A30) in methanol and is higher than 0.18 for dyes (A24) and (A30) in PBS (Table 1, Fig. 5), whereas for dyes of formula (I) (R1 = -CH3, R2 = R6= -SO3^-; R3= -(CH2)5COOH, R4= -C2H5; R5= -H) the values are 0.18 in methanol and 0.11 in PBS; • on excitation at wavelength 635 nm and record at 670 nm, the relative efficiency of fluorescence exceeds 0.50 for dyes (A1), (A11), (A23) in methanol and is higher than 0.45 for dyes (A22), (A25), and (A30) in PBS (Table 1, Fig. 6), whereas for dyes of formula (I) (R1= -CH3, R2= R6= -SO3^-; R3= -(CH2)5COOH, R4= -C2H5; R5= -H) the values are 0.44 in methanol and 0.38 in PBS.
Term sensitivity of fluorescent analysis is defined by the absolute sensitivity of label that may be represented as the product of molar extinction coefficient by quantum efficiency of fluorescence (ε*Φ). Thus, there are determined the absolute sensitivity of indodicarbocyanines (A1-A30, B1-B7) in appropriate absorption and fluorescence maxima in methanol and in aqueous phosphate buffered saline. The values are normalized to the maximal value obtained for dye (A30) in PBS (Table 1). In methanol, dyes (A10, A22, A23, A25, A30) have the upper-range of absolute sensitivity, but in PBS, dyes (A10, A22, A25, A29, A30) have the maximal values of sensitivity (Fig. 4).
To determine the most appropriate dyes for instrument setting, there are measured the relative efficiency of fluorescence of dyes at wavelength of excitation and record of the instrument (655 nm. / 690 nm). The maximal values appear to be specific to dyes (A25) and (A30) in methanol, and to dyes (A19, A22, A25, A29, A30) in PBS (Table 1, Fig. 5).
There are also measured the relative efficiency of fluorescence at wavelength of excitation and record of the instrument (635 nm / 670 nm). The maximal values appear to be specific to dyes (A1, A10, A11, A23) in methanol, and to dyes (A10, A22, A25, A29, A30) in PBS (Table 1, Fig. 6).

[5] = Molar extinction coefficient in methanol and PBS; type: physicochemical; set-up: ε·10^-5: unit not given here
Description: For all indodicarbocyanine dyes (I) (A1) - (A30) and (B1) - (B7) of the invention, there are determined the molar extinction coefficients in methanol and in aqueous phosphate buffered saline (PBS) (10 mM potassium phosphate buffer, sodium chloride concentration is 0.9%, pH 7.4). In methanol, indodicarbocyanine (A1, A8, A10-A12, A17, A23) has the upper-range of molar extinction coefficient (ε >[…]). In aqueous phosphate buffered saline (PBS), dyes (A10, A23, A30) have the maximal ε-value (Fig. 2).

Compound	Φ (quantum efficiency of fluorescence) ([1]; MeOH)	water solubility [2]	λmax^abs ([3]; MeOH)	λmax^em ([3]; MeOH)	λmax^abs ([3]; PBS)	λmax^em ([3]; PBS)	Sensitivity of record 635/ 670 ([4]; MeOH)	Sensitivity of record 655/ 690 ([4]; MeOH)	Sensitivity of record max/ max ([4]; MeOH)	Sensitivity of record 635/ 670 ([4]; PBS)	Sensitivity of record 655/ 690 ([4]; PBS)	Sensitivity of record max/ max ([4]; PBS)	Φ (quantum efficiency of fluorescence) ([1]; PBS)	ε·10^-5 ([5]; MeOH)	ε·10^-5 ([5]; PBS (10 mM potassium phosphate buffer, 0.9% sodium chloride, pH 7.4))
5,5'-disulfo-N,N'-di(4-sulfobutyl)-3-(4-carboxybutyl)-3,3',3'-trimethylindodicarbocyanine, trisodium salt [A30]	~0.3	very good water solubility	–	–	–	–	–	–	–	–	–	–	–	–	–
CCN1/C(=C/C=C/C=C/C2=[N+](CC)c3ccccc3C2(C)C)C(C)(CCCCC(=O)O)c2cc(S(=O)(=O)[O-])ccc21 (centres unmarked) [A9, N,N'-diethyl-3-(4-carboxybutyl)-5-sulfo-3,3',3'-trimethylindodicarbocyanine]	0.23	–	648 nm	663 nm	646 nm	659 nm	0.424	0.124	0.627	0.229	0.052	0.385	0.15	2.07±0.03	1.91±0.02
CC1(C)C(=CC=CC=CC2=[N+](CCCCS(=O)(=O)[O-])c3ccc(CCC(=O)O)cc3C2(C)C)N(CCCCS(=O)(=O)[O-])c2ccc(S(=O)(=O)[O-])cc21.[Na+].[Na+] [B7, N,N'-disulfobutyl-5-carboxyethyl-5'-sulfo-3,3,3',3'-tetramethylindodicarbocyanine, disodium salt]	–	very good water solubility	–	–	–	–	–	–	–	–	–	–	–	–	–
